Laboratory results published in patent publication US20060009463A1, “N-(3-rifamycinyl)-carbamates, method of preparing them and their use for treating and preventing tuberculosis” (priority 2002, published 2006).

Key:
[1] = system: Bacillus subtilis ATCC 6633; experiment: double-dosage method of diffusion in agar; assay type: cell-based; conditions: for relative activity, Bacillus subtilis ATCC 6633: activity of rifampicin taken as 1000, agar diffusion, 5 and 10 μg/ml, pH 7.4; for antibiotic activity compared with rifampicine (in words): against Bacillus subtilis
Escherichia coli = experiment: double-dosage method of diffusion in agar; conditions: for relative activity, Escherichia coli: activity of rifampicin taken as 1000, agar diffusion, 5 and 10 μg/ml, pH 7.4
Method: (§1) This test is based on the logarithmic dependence between the size of the inhibition area associated with the bacterial growth in a layer of agar (response) and the quantity of the applied antibiotic.
(§2) From these solutions buffered solutions were prepared in phosphate buffer, pH 7.4 at concentrations of 5 and 10 μg/ml.
(§3) An initial suspension of the test microorganism (Bacillus subtilis ATCC 6633, Escherichia coli, Bacillus mycoide, Klebsiella pneumoniae, Pseudomonas aeruginosa) was prepared having a UV-light transmission of about 25%. A suitable diffusion medium (for example for Bacillus subtilis: 1 g pepton, 3 g yeast extract, 15-18 g agar, in 1 l water, pH 7.8-8.0 after sterilization) was inoculated with 0.5 ml of the initial suspension per 100 ml medium at a temperature of 60-65° C. 20 ml of the mixture each was filled into Petri's dishes (diameter 100 mm). After hardening of the medium four pits (diameter 5 mm) were placed in each dish and onto every pit 90 μl of the solutions of the reference and the tested compounds were added. The dishes were incubated at 37° C. for at least 15 hours. The sizes (diameters) of the areas of inhibition were then measured with an accuracy of 0.1 mm.
(§4) The activity A was calculated according to • lg A=(lv/w) with • I=lg (high concentration/low concentration), • v=(ΣX1+ΣX2)−(ΣP1+ΣP2), and • w=(ΣX2+ΣP2)−(ΣX1+ΣP1), with • X1: area size in mm at low concentration of the sample, • X2: area size in mm at high concentration of the sample, • P1: area size in mm at low concentration of the reference, • P2: area size in mm at low concentration of the reference,

M. tuberculosis H37Rv = experiment: ex vivo anti-mycobacterial activity, growth in mouse macrophages; assay type: cell-based, Mycobacterium tuberculosis; conditions: for Macrophage Data, Monolayer 1 / Macrophage Data, Monolayer 2 / Macrophage Data, Monolayer 3 / Macrophage Data, Monolayer 4 / Macrophage Data, Monolayer mean: J774 mouse macrophages infected with M. tuberculosis H37Rv; for Macrophage Data, Monolayer 1 / Macrophage Data, Monolayer 2 / Macrophage Data, Monolayer 3 / Macrophage Data, Monolayer 4: 24 hours with compound; for in vitro and ex vivo activity against Mycobacterium tuberculosis compared with rifampicine (in words): general statement of the description; for Macrophage Data, Monolayer mean: mean of monolayers 1-4, 24 hours
Bacillus mycoide = experiment: double-dosage method of diffusion in agar; conditions: activity of rifampicin taken as 1000, 5 and 10 μg/ml, pH 7.4
Method: as §1, §2
An initial suspension of the test microorganism (Bacillus subtilis ATCC 6633, Escherichia coli, Bacillus mycoide, Klebsiella pneumoniae, Pseudomonas aeruginosa) was prepared having a UV-light transmission of about 25%. A suitable diffusion medium (for example for Bacillus subtilis: 1 g pepton, 3 g yeast extract, 15-18 g agar, in 1 l water, pH 7.8-8.0 after sterilization) was inoculated with 0.5 ml of the initial suspension per 100 ml medium at a temperature of 60-65° C. 20 ml of the mixture each was filled into Petri's dishes (diameter 100 mm). […] The sizes (diameters) of the areas of inhibition were then measured with an accuracy of 0.1 mm.
as §4

Pseudomonas aeruginosa = experiment: double-dosage method of diffusion in agar; conditions: for relative activity, Pseudomonas aeruginosa: activity of rifampicin taken as 1000, agar diffusion, 5 and 10 μg/ml, pH 7.4
Method: as §1, §2, §3, §4

Klebsiella pneumoniae = experiment: double-dosage method of diffusion in agar; conditions: for relative activity, Klebsiella pneumoniae: activity of rifampicin taken as 1000, agar diffusion, 5 and 10 μg/ml, pH 7.4
Method: as §1, §2, §3, §4

Structure (SMILES)	relative activity, Bacillus subtilis ATCC 6633 [1]	antibiotic activity compared with rifampicine (in words) [1]	relative activity, Escherichia coli (Escherichia coli)	Macrophage Data, Monolayer 1 (M. tuberculosis H37Rv) [CFU/ml]	Macrophage Data, Monolayer 2 (M. tuberculosis H37Rv) [CFU/ml]	Macrophage Data, Monolayer 3 (M. tuberculosis H37Rv) [CFU/ml]	Macrophage Data, Monolayer 4 (M. tuberculosis H37Rv) [CFU/ml]	in vitro and ex vivo activity against Mycobacterium tuberculosis compared with rifampicine (in words) (M. tuberculosis H37Rv)	Macrophage Data, Monolayer mean (M. tuberculosis H37Rv) [CFU/ml]	relative activity, Bacillus mycoide (Bacillus mycoide)	relative activity, Pseudomonas aeruginosa (Pseudomonas aeruginosa)	relative activity, Klebsiella pneumoniae (Klebsiella pneumoniae)	antibiotic activity compared with rifampicine (in words) (Escherichia coli; against E. coli)	antibiotic activity compared with rifampicine (in words) (Pseudomonas aeruginosa; against P. aeruginosa)	antibiotic activity compared with rifampicine (in words) ([1]; listed as N-(methyloxycarbonyl)-3-aminorifamycin S)	antibiotic activity compared with rifampicine (in words) ([1]; listed as methyl)	antibiotic activity compared with rifampicine (in words) (Klebsiella pneumoniae; against K. pneumoniae)
COC1C=COC2(C)Oc3c(C)c(O)c4c(c3C2=O)C(=O)C(NC(=O)OCCBr)=C(NC(=O)C(C)=CC=CC(C)C(O)C(C)C(O)C(C)C(OC(C)=O)C1C)C4=O (stereo not drawn) [R = 2-bromoethyl, N-(2-Bromoethyloxycarbonyl)-3-aminorifamicin S]	6600	about six times higher than rifampicine	–	–	–	–	–	–	–	–	–	–	–	–	–	–	–
COC1C=COC2(C)Oc3c(C)c(O)c4c(c3C2=O)C(=O)C(NC(=O)OCc2ccc([N+](=O)[O-])cc2)=C(NC(=O)C(C)=CC=CC(C)C(O)C(C)C(O)C(C)C(OC(C)=O)C1C)C4=O (stereo not drawn) [R = 4-nitrobenzyl, N-(4-Nitrobenzyloxycarbonyl)-3-aminorifamicin S]	5400	about six times higher than rifampicine	–	–	–	–	–	–	–	–	–	–	–	–	–	–	–
CCOC(=O)NC1=C2NC(=O)C(C)=CC=CC(C)C(O)C(C)C(O)C(C)C(OC(C)=O)C(C)C(OC)C=COC3(C)Oc4c(C)c(O)c(c(c4C3=O)C1=O)C2=O (stereo not drawn) [R = ethyl, N-(Ethyloxycarbonyl)-3-aminorifamycin S]	2050	–	690	0.00	200.00	0.00	0.00	at least as high or even higher as the activity of rifampicine	50.00	1150	920	1030	–	–	–	–	–
COC(=O)NC1=C2NC(=O)C(C)=CC=CC(C)C(O)C(C)C(O)C(C)C(OC(C)=O)C(C)C(OC)C=COC3(C)Oc4c(C)c(O)c(c(c4C3=O)C1=O)C2=O (stereo not drawn) [R = methyl, N-(Methyloxycarbonyl)-3-aminorifamycin S]	6000	–	2100	0.00	0.00	0.00	200.00	at least as high or even higher as the activity of rifampicine	50.00	2000	1750	1900	twice as high as rifampicine	twice as high as rifampicine	twice as high as rifampicine	about six times higher than rifampicine	twice as high as rifampicine
CO[C@H]1/C=C/O[C@@]2(C)Oc3c(C)c(O)c4c(O)c(c(/C=N/N5CCN(C)CC5)c(O)c4c3C2=O)NC(=O)/C(C)=C\C=C\[C@H](C)[C@H](O)[C@@H](C)[C@@H](O)[C@@H](C)[C@H](OC(C)=O)[C@@H]1C [rifampicine, reference compound]	–	–	–	0.00	200.00	600.00	800.00	–	400.00	–	–	–	–	–	–	–	–
